Values quoted from earlier work in US20120322767A1, “FORMULATIONS OF BISPHOSPHONATES AND VITAMIN D SUIUTABLE FOR INTERMITTENT INTRAMUSCULAR AND SUBCUTANEOUS ADMINISTRATION” (priority 2009, published 2012).

How the values were obtained:
[1] = humans, ratio of urinary or plasma concentrations (AUC) after intravenous and oral administration
[2] = man, oral, 100,000 IU, maintained for two months

Question: For `NCCC(O)(P(=O)(O)O)P(=O)(O)O` [pamidronate], which Oral bioavailability [1] is on record?
Answer: Its Oral bioavailability is about 0.3%.

Question: For `O=P(O)(O)C(Cl)(Cl)P(=O)(O)O` [clodronate], which Oral bioavailability [1] is on record?
Answer: Its Oral bioavailability is 1-2%.

Question: For vitamin D, which “Serum levels of calcidiol” value [2] is on record?
Answer: The value was over 80 nM.

Question: With `CC(O)(P(=O)(O)O)P(=O)(O)O` [etidronate] as the molecule, how does the Oral bioavailability [1] read?
Answer: The Oral bioavailability was 3-7%.
